Assay [1] has as its target T1, InhA^WT (Mycobacterium tuberculosis, UniProt P9WGR1). Type of assay: binding.
Assay [2] deals with T1, InhA^WT. Type of assay: biochemical.
A further assay relates to InhA. The conditions noted are these: cited from earlier work.

Where “and” joins values, the source holds several entries; their conditions need not be identical. Equal entries are not always repeated. Where two headings read alike, the source gives them in different places.

The text below walks through data of PMC4805124 (Biochemistry, 2015).

T1 sequence (P9WGR1 whole entry, looked up): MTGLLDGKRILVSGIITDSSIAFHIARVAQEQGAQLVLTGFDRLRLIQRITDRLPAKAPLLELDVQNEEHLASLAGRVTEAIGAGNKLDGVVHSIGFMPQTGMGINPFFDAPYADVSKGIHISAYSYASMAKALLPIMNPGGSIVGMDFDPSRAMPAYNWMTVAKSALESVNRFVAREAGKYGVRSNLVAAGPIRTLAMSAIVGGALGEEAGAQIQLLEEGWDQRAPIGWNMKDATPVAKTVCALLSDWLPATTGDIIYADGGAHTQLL

As to `Cc1ccccc1Oc1ccc(Cn2cc(-c3ccccc3)nn2)cc1O` [PT163, 5-((4-phenyl-1H-1,2,3-triazol-1-yl)methyl)-2-(o-tolyloxy)phenol], the “tR (^32P- NAD)” value at InhA^WT [1] was 114 min and 114 ± 18 min. Also, on InhA^WT [2], the k5 is 0.44 ± 0.06 min⁻¹, the k6 amounted to 0.011 ± 0.001 min⁻¹, the “tR (1/k6)” value worked out at 94 ± 3 min and the ΔΔG was determined as 2.26 kcal/mol.
Turning to `CCCCCCc1ccc(Oc2ccccc2C)c(O)c1` [PT70, 2-(o-tolyoxy)-5-hexylphenol], the “tR (^32P- NAD)” value on InhA^WT [1] came out at 37 ± 2 min. Also, the residence time with InhA was 40 min. The Ki at InhA (slow-onset, tight binding inhibitor) was 0.0006 µM. In addition, on InhA^WT [2], the “Ki^app/Ki*^app” value is 10.8, the k5 was 0.40 ± 0.01 min⁻¹, the k6 was 0.025 ± 0.002 min⁻¹ and the “tR (1/k6)” value is listed as 40 ± 2 min. Further, on InhA^WT [2], the ΔΔG is 1.41 and 1.41 kcal mol^−1. The Ki on InhA^WT [2] (read-out: Ki*^app) was 0.024 µM and 0.0237 µM. Also, the Ki on InhA^WT [2] (read-out: Ki^app) was 0.256 ± 0.038 µM.
